Experimental data published in patent US20240360113A1, “AMINOARYL-INTEGRIN AGONISTS COMPOUNDS” (Texas Heart Institute, priority 2021, published 2024).

Key:
αLβ2/ICAM-1 = target: T1, αLβ2/ICAM-1 (Homo sapiens, UniProt P05107+P20701); experiment: Static cell adhesion assay, HSB cells on ICAM-1 (LFA-1; LAD); format: cell-based; conditions: RFU of compound / RFU of THI0349, both at the same concentration
T1 construct: The Jurkat (VCAM-1 assays) and HSB (ICAM-1 assays) cell lines were obtained from American Type Culture Collection; endogenous in cells; host or cells: HSB (ATCC)
T1 sequence (P20701 26-1170): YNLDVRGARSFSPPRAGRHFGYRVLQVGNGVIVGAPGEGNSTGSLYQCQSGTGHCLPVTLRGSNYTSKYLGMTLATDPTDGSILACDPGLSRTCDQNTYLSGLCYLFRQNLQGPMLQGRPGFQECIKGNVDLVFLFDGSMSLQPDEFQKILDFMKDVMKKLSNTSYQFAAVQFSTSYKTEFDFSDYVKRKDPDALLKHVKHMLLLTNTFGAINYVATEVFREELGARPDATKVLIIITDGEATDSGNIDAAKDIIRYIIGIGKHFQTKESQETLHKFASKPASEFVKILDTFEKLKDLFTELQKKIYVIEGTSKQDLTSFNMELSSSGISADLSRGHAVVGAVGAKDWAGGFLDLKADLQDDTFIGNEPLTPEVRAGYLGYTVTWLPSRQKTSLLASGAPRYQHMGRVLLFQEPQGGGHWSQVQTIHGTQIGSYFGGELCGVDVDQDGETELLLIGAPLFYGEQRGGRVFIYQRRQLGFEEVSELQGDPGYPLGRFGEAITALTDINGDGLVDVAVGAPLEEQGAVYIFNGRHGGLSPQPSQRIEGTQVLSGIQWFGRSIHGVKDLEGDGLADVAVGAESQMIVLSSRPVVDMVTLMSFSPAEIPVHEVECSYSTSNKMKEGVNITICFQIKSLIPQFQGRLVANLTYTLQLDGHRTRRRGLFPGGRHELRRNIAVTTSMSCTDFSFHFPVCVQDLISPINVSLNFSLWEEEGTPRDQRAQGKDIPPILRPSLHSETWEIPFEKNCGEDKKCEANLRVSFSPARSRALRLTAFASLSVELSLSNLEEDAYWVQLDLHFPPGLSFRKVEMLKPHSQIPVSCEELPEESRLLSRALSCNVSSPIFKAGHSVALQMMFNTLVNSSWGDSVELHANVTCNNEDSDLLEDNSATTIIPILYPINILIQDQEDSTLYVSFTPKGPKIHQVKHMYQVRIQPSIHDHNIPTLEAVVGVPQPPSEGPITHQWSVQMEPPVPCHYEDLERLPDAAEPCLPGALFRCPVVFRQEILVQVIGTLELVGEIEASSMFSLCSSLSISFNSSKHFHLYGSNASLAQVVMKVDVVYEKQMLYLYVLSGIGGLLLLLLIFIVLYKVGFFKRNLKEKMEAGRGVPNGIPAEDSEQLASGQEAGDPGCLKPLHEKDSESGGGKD
T1 sequence (P05107 23-769): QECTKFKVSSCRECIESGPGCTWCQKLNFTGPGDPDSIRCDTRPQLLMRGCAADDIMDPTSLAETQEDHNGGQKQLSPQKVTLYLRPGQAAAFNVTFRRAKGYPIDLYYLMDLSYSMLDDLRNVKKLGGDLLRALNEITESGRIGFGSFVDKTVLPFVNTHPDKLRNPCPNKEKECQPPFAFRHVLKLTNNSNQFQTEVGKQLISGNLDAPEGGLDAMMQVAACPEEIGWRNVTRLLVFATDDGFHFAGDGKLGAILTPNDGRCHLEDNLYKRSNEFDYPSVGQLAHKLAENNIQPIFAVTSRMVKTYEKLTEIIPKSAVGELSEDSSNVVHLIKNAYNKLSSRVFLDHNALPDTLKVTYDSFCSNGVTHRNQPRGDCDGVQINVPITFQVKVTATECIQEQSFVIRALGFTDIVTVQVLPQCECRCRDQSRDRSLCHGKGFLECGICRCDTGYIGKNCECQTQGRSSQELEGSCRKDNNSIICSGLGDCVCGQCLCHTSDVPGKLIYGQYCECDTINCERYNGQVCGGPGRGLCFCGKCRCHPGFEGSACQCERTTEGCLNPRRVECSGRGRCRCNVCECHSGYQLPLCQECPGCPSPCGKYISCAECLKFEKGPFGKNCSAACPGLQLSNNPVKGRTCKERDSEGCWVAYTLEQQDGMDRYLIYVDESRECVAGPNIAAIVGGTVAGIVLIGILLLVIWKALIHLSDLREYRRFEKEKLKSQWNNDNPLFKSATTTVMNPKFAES
Procedure: (§1) For in vitro cell adhesion assays, compounds were dissolved in DMSO to make a series of stock solutions such that a 1:100 dilution in assay buffer would yield the desired final working concentrations in 1% DMSO (vehicle). Human VCAM-1 and ICAM-1 were purchased from R&D Systems (Minneapolis, MN). The Jurkat (VCAM-1 assays) and HSB (ICAM-1 assays) cell lines were obtained from American Type Culture Collection (Manassas, VA) and were maintained in recommended culture media.
(§2) Assays were performed as previously described in Vanderslice et al., (2010), Biochem Biophys Res Commun 400, 619-624; and Vanderslice et al., (2013) J Biol Chem 288, 19414-19428. VCAM-1 or ICAM-1 ligand in 50 μL of 50 mM Tris-HCl (pH 7.4), 150 mM NaCl, (TBS) was added to wells of a 96-well plate and allowed to coat overnight at 4° C. To maximize the window to evaluate agonist activity, a sub-optimal coating concentration of ligand was used, typically 0.5 and 5 μg/mL in 50 μL TBS for VCAM-1 and ICAM-1 respectively. This ligand concentration corresponded approximately to that which would yield <5% adhesion as determined by dose-response curves. Briefly, 2×10^6 cells were labeled for 30 minutes with calcein-AM (Molecular Probes), washed, resuspended in binding buffer, and added to triplicate wells of ligand-coated plates (2×10^5 cells/well) that had been blocked with 2% BSA. After a 30-minute incubation at 37° C., the plates were washed 3 times with binding buffer, the adherent cells were lysed, and fluorescence was measured on a Tecan Safire^2 plate reader. The binding buffer was PBS with 1 mM MgCl2, 50% FBS for α4β1/VCAM-1 assays and PBS with 2 mM MgCl2, 5 mM EGTA, 50% FBS for αLβ2/ICAM-1 assays. EC50 is defined as the concentration of compound required to achieve 50% of the maximal response.
In relation to LAD (Leukocyte Adhesion Deficiency), LFA-1 ratios are determined by dividing the relative fluorescence units (RFU) of each compound at a concentration of 3 μM over that of the reference standard of THI0349, also at 3 μM, (RFU Compound/RFU of THI0349). Log Ps were calculated by either Chemdraw® version 12 (CambridgeSoft) or ACD/Chemsketch® (ACD/Labs).

α4β1/VCAM-1 = target: T2, α4β1/VCAM-1 (Homo sapiens, UniProt P05556+P13612); experiment: Static cell adhesion assay, Jurkat cells on VCAM-1 (VLA-4 agonist activity); format: cell-based; conditions: for Group against VCAM: EC50 relative to THI0349 (average 11 uM) run on the same plate, Jurkat cells, 50% FBS; for EC50: assay conditions reported herein, in the presence of serum, read-out: EC50 against VCAM
T2 construct: The Jurkat (VCAM-1 assays) and HSB (ICAM-1 assays) cell lines were obtained from American Type Culture Collection; endogenous in cells; host or cells: Jurkat (ATCC)
T2 sequence (P13612 34-1032): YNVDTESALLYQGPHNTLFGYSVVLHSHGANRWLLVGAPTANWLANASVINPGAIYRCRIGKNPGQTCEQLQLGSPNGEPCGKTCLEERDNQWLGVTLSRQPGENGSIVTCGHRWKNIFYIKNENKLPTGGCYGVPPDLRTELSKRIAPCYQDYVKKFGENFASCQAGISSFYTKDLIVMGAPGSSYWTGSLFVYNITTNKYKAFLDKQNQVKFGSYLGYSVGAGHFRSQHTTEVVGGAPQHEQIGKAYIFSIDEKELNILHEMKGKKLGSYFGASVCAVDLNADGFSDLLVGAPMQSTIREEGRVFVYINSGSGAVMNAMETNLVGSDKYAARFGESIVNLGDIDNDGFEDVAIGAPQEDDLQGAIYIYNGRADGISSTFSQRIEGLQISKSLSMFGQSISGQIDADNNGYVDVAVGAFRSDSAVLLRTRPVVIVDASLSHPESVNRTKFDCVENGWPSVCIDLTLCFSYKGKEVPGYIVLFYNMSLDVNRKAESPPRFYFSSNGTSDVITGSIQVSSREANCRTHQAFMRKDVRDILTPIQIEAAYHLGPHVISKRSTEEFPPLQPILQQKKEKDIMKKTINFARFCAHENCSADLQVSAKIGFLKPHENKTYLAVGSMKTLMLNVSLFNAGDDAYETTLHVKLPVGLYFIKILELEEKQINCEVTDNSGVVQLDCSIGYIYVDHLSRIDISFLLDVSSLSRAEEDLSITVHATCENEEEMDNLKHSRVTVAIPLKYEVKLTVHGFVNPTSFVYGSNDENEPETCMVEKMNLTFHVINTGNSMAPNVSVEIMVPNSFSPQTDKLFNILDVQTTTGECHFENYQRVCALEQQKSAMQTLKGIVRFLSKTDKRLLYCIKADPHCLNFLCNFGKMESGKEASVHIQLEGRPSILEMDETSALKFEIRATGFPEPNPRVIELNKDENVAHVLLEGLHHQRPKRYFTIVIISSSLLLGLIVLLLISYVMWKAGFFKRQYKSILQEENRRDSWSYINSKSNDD
T2 sequence (P05556 21-798): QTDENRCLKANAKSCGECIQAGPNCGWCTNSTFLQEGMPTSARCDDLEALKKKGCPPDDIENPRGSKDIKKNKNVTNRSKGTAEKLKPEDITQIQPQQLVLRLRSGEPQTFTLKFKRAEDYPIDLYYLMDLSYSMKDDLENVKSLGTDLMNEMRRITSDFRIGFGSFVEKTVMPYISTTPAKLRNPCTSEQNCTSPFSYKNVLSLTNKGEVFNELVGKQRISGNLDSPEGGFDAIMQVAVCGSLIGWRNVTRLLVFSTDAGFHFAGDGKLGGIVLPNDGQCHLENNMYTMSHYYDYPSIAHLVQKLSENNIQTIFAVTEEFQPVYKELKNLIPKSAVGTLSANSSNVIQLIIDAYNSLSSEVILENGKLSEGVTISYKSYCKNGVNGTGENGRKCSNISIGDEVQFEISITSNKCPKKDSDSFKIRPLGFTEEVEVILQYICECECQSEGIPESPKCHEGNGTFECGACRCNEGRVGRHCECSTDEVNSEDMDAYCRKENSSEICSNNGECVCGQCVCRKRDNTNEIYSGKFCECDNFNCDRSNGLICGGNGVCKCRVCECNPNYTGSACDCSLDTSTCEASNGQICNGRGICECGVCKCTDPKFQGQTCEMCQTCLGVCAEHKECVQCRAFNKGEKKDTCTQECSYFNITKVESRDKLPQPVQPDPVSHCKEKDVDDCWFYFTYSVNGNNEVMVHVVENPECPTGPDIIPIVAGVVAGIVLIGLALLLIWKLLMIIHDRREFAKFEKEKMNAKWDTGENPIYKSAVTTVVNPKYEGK
Procedure: as §1, §2

## COc1cccc(CN(Cc2cccc(OC)c2)c2nc(COCCOc3ccc(Cl)cc3)cs2)c1 [Compound 49, 4-((2-(4-chlorophenoxy)ethoxy)methyl)-N,N-bis(3-methoxybenzyl)thiazol-2-amine]
αLβ2/ICAM-1
  LAD Raw Fluorescence Units against LFA-1; Dose 3 µM; Ratio of raw counts Compound/THI0349: 0.63
α4β1/VCAM-1
  Group against VCAM: II (Group II is more than twice that of THI0349 but less than five times THI0349's EC50)

## COc1cccc(CN(Cc2cccc(OC)c2)c2nc(COCCN3CCCCC3)cs2)c1 [Compound 65, N,N-bis(3-methoxybenzyl)-4-((2-(piperidin-1-yl)ethoxy)methyl)thiazol-2-amine]
αLβ2/ICAM-1
  LAD Raw Fluorescence Units against LFA-1; Dose 3 µM; Ratio of raw counts Compound/THI0349: 0.29
α4β1/VCAM-1
  Group against VCAM: I (Group I maintains at least the same potency or better up to more than twice that of the EC50 of THI0349 ran on the same plate)

## COc1cccc(CN(Cc2cccc(OC)c2)c2nc(COCCOCCOc3cccc(N(C)C)c3)cs2)c1 [Compound 41, 4-((2-(2-(3-(dimethylamino)phenoxy)ethoxy)ethoxy)methyl)-N,N-bis(3-methoxybenzyl)thiazol-2-amine]
αLβ2/ICAM-1
  LAD Raw Fluorescence Units against LFA-1; Dose 3 µM; Ratio of raw counts Compound/THI0349: 1.3
α4β1/VCAM-1
  Group against VCAM: I (Group I maintains at least the same potency or better up to more than twice that of the EC50 of THI0349 ran on the same plate)

## COc1ccc(CCCNC(=O)c2cnc(N(Cc3cccc(OC)c3)Cc3cccc(OC)c3)o2)cc1 [Compound 22, 2-(bis(3-methoxybenzyl)amino)-N-(3-(4-methoxyphenyl)propyl)oxazole-5-carboxamide]
αLβ2/ICAM-1
  LAD Raw Fluorescence Units against LFA-1; Dose 3 µM; Ratio of raw counts Compound/THI0349: 0.69
α4β1/VCAM-1
  Group against VCAM: I (Group I maintains at least the same potency or better up to more than twice that of the EC50 of THI0349 ran on the same plate)

## COc1cccc(CN(Cc2cccc(OC)c2)c2nc(COCCOCCOCc3ccccc3)cs2)c1 [Compound 53, 4-((2-(2-(benzyloxy)ethoxy)ethoxy)methyl)-N,N-bis(3-methoxybenzyl)thiazol-2-amine]
αLβ2/ICAM-1
  LAD Raw Fluorescence Units against LFA-1; Dose 3 µM; Ratio of raw counts Compound/THI0349: 1.06
α4β1/VCAM-1
  Group against VCAM: I (Group I maintains at least the same potency or better up to more than twice that of the EC50 of THI0349 ran on the same plate)

## COc1cccc(CN(Cc2cccc(OC)c2)c2nc(COC3CCOCC3)cs2)c1 [Compound 122, N,N-bis(3-methoxybenzyl)-4-((tetrahydro-2H-pyran-4-yloxy)methyl)thiazol-2-amine]
α4β1/VCAM-1
  Group against VCAM: II (Group II is more than twice that of THI0349 but less than five times THI0349's EC50)

## COc1cccc(CN(Cc2cccc(OC)c2)c2nc3c(s2)CN(C(=O)OC(C)(C)C)CC3)c1 [Compound 70, tert-butyl 2-(bis(3-methoxybenzyl)amino)-6,7-dihydrothiazolo[5,4-c]pyridine-5(4H)-carboxylate]
αLβ2/ICAM-1
  LAD Raw Fluorescence Units against LFA-1; Dose 3 µM; Ratio of raw counts Compound/THI0349: 0.14
α4β1/VCAM-1
  Group against VCAM: III (Group III more than five times the EC50 of THI0349)

## COc1cccc(CN(Cc2cccc(OC)c2)c2nc(CNC3CCOCC3)cs2)c1 [Compound 128, N,N-bis(3-methoxybenzyl)-4-((tetrahydro-2H-pyran-4-ylamino)methyl)thiazol-2-amine]
α4β1/VCAM-1
  Group against VCAM: I (Group I maintains at least the same potency or better up to more than twice that of the EC50 of THI0349 ran on the same plate)

## COc1ccc(CCOCc2csc(N(Cc3cccc(OC)c3)Cc3cccc(OC)c3)n2)cc1 [Compound 40, N,N-bis(3-methoxybenzyl)-4-((4-methoxyphenethoxy)methyl)thiazol-2-amine]
αLβ2/ICAM-1
  LAD Raw Fluorescence Units against LFA-1; Dose 3 µM; Ratio of raw counts Compound/THI0349: 0.4
α4β1/VCAM-1
  Group against VCAM: III (Group III more than five times the EC50 of THI0349)

## OCc1coc(N(Cc2cccs2)Cc2cccs2)n1 [Compound 25, (2-(bis(thiophen-2-ylmethyl)amino)oxazol-4-yl)methanol]
αLβ2/ICAM-1
  LAD Raw Fluorescence Units against LFA-1; Dose 3 µM; Ratio of raw counts Compound/THI0349: 0.74
α4β1/VCAM-1
  Group against VCAM: II (Group II is more than twice that of THI0349 but less than five times THI0349's EC50)

## COc1ccc(CCCNC(=O)c2csc(N(Cc3cccc(OC)c3)Cc3cccc(OC)c3)n2)cc1 [Compound 23, 2-(bis(3-methoxybenzyl)amino)-N-(3-(4-methoxyphenyl)propyl)thiazole-4-carboxamide]
αLβ2/ICAM-1
  LAD Raw Fluorescence Units against LFA-1; Dose 3 µM; Ratio of raw counts Compound/THI0349: 0.85
α4β1/VCAM-1
  Group against VCAM: I (Group I maintains at least the same potency or better up to more than twice that of the EC50 of THI0349 ran on the same plate)

## COc1ccc(CCNC(=O)c2csc(N(Cc3cccc(OC)c3)Cc3cccc(OC)c3)n2)cc1 [Compound 21, 2-(bis(3-methoxybenzyl)amino)-N-(4-methoxyphenethyl)thiazole-4-carboxamide]
α4β1/VCAM-1
  Group against VCAM: I (Group I maintains at least the same potency or better up to more than twice that of the EC50 of THI0349 ran on the same plate)

## COC(=O)c1nc(N(Cc2cccc(OC)c2)Cc2cccc(OC)c2)sc1C [Compound 101, methyl 2-(bis(3-methoxybenzyl)amino)-5-methylthiazole-4-carboxylate]
αLβ2/ICAM-1
  LAD Raw Fluorescence Units against LFA-1; Dose 3 µM; Ratio of raw counts Compound/THI0349: 0.03
α4β1/VCAM-1
  Group against VCAM: II (Group II is more than twice that of THI0349 but less than five times THI0349's EC50)

## COc1cccc(CN(Cc2cccc(OC)c2)c2nc(COC3COC3)cs2)c1 [Compound 123, N,N-bis(3-methoxybenzyl)-4-((oxetan-3-yloxy)methyl)thiazol-2-amine]
α4β1/VCAM-1
  Group against VCAM: II (Group II is more than twice that of THI0349 but less than five times THI0349's EC50)

## CCOC(=O)c1csc(N(Cc2cccc(OC)c2)Cc2ccc3nc[nH]c3c2)n1 [Compound 120, ethyl 2-(((1H-benzo[d]imidazol-6-yl)methyl)(3-methoxybenzyl)amino)thiazole-4-carboxylate]
α4β1/VCAM-1
  Group against VCAM: III (Group III more than five times the EC50 of THI0349)

## CCCC[C@@H](COC(=O)N(Cc1cccs1)Cc1cccs1)NC(=O)N[C@@H](CC(=O)OC)c1ccc2c(c1)OCO2 [THI0019, reference compound]
α4β1/VCAM-1
  EC50: 33 µM

## O=C(OCCOCCOCCOC(=O)N(Cc1cccs1)Cc1cccs1)N(Cc1cccs1)Cc1cccs1 [THI0349, reference compound]
α4β1/VCAM-1
  EC50: 11 µM

## COc1cccc(CN(Cc2cccc(OC)c2)c2nc(CNCC3CCN(C)CC3)cs2)c1 [Compound 130, N,N-bis(3-methoxybenzyl)-4-(((1-methylpiperidin-4-yl)methylamino)methyl)thiazol-2-amine]
α4β1/VCAM-1
  Group against VCAM: III (Group III more than five times the EC50 of THI0349)

## COc1cccc(CN(Cc2cccc(OC)c2)c2nc(CNC3CCN(C)CC3)cs2)c1 [Compound 126, N,N-bis(3-methoxybenzyl)-4-((1-methylpiperidin-4-ylamino)methyl)thiazol-2-amine]
α4β1/VCAM-1
  Group against VCAM: III (Group III more than five times the EC50 of THI0349)

## COc1cccc(CN(Cc2cccc(OC)c2)c2nc(COCCOC3CCOCC3)cs2)c1 [Compound 131, N,N-bis(3-methoxybenzyl)-4-((2-(tetrahydro-2H-pyran-4-yloxy)ethoxy)methyl)thiazol-2-amine]
α4β1/VCAM-1
  Group against VCAM: I (Group I maintains at least the same potency or better up to more than twice that of the EC50 of THI0349 ran on the same plate)

## COc1cccc(CN(Cc2cccc(OC)c2)c2nc(COCC3COC3)cs2)c1 [Compound 129, N,N-bis(3-methoxybenzyl)-4-((oxetan-3-ylmethoxy)methyl)thiazol-2-amine]
α4β1/VCAM-1
  Group against VCAM: II (Group II is more than twice that of THI0349 but less than five times THI0349's EC50)

## COc1cccc(CN(Cc2cccc(OC)c2)c2nc(COCC3CCOCC3)cs2)c1 [Compound 124, N,N-bis(3-methoxybenzyl)-4-(((tetrahydro-2H-pyran-4-yl)methoxy)methyl)thiazol-2-amine]
α4β1/VCAM-1
  Group against VCAM: II (Group II is more than twice that of THI0349 but less than five times THI0349's EC50)

## COc1cccc(CN(Cc2cccc(OC)c2)c2nc(CN(C)C3CCOCC3)cs2)c1 [Compound 125, N,N-bis(3-methoxybenzyl)-4-((methyl(tetrahydro-2H-pyran-4-yl)amino)methyl)thiazol-2-amine]
α4β1/VCAM-1
  Group against VCAM: II (Group II is more than twice that of THI0349 but less than five times THI0349's EC50)
